Key:
[1] = tested on: Staphylococcus hominis 58-69; test: Growth inhibition zones around silicone prosthetic liner; type: cell-based
Excerpt: (§1) Bacterial Strains: • Staphylococcus epidermidis RP62A • Staphylococcus hominis 58-69
(§2) The level of bacterial inhibition was examined by number of CFU and growth zone inhibition. All materials tested were washed with water after completion of the swell and dry procedure to ensure that the activity of the materials was due to internally absorbed AMC-109 only.

[2] = tested on: Staphylococcus epidermidis RP62A; test: as above; type: cell-based
Excerpt: as §1, §2

[3] = tested on: Listeria monocytogenes; test: MIC microbroth dilution (CLSI); type: cell-based; details: antibiotic-susceptible clinical isolate
Excerpt: (§3) Cation-adjusted Mueller-Hinton broth (Oxoid Ltd., Basingstoke, UK and Trek Diagnostic Systems Ltd., East Grinstead, UK) (supplemented with 5% laked horse blood for Streptococcus spp., Corynebacterium jeikeium and Listeria monocytogenes) was used for aerobic bacteria, with an initial inoculum of approximately 10^5 colony-forming units (CFU)/m L.

[4] = tested on: Salmonella sp; test: MIC microbroth dilution (CLSI); type: cell-based
Excerpt: as §3

[5] = tested on: Staphylococcus aureus FDA486; test: Murine skin infection model, topical treatment; type: in vivo, mice; details: FIG. 1; cream or gel containing 2% (w/w), three treatments at three hourly intervals, compared to placebo
Protocol: (§4) The skin of mice was infected with Staphylococcus aureus or Streptococcus pyogenes and subsequently given a total of three treatments at three hourly intervals. Three hours after the last treatment, skin biopsies were collected and the number of colony forming units (CFUs) present in the skin sample was determined. Results are shown in FIGS. 1 and 2, expressed as the number of colony forming units per mouse.
In experiment 1 (FIG. 1), compound 2 was applied to the murine skin as part of either a cream or a gel containing 2% (w/w) of compound 2. The same cream or gel without compound 2 was used as a negative control (placebo).
as §4, with “3, 4” for “1”, “5” for “2,”
In experiment 1 (FIG. 3), compound 7 was applied to the murine skin as part of either a cream or a gel containing 2% (w/w) of compound 7. The same cream or gel without compound 7 was used as a negative control (placebo). Bactroban 2% cream was used as a positive control.
In experiment 3 (FIG. 5), compound 8 was applied in a 2% cream formulation on a Staphylococcus aureus FDA 486 infection in the murine skin infection model. A placebo cream and two known antibacterials, “Fucidin (fucidic acid) ointment 2%” and “Bactroban (mupericin) cream 2%” were used as controls.

[6] = tested on: S. aureus
[7] = tested on: Methicillin resistant Staphylococcus epidermidis (MRSE) strain ATCC 27626; details: MRSE ATCC 27626
[8] = tested on: Staphylococcus hominis 58-69; test: CFU on silicone prosthetic liner patches; type: cell-based; details: washed with water
Protocol: as §1
(§5) Overnight colonies of S. epidermidis or S. hominis were diluted to 0.5 McFarland (1×10^8 CFU/ml) in 0.85% NaCl. The bacterial solution was further diluted in Tryptic Soy Broth media (to 1×10^5 CFU/ml) and drops of 100 μl was applied to the surfaces of the silicone patches. Silicone patches were placed on glass microscope slides, and the glass slides were placed in a moist incubation chamber and incubated for 24 hours at 37° C.
(§6) For determining CFU, the samples were vortexed in 1 ml 0.85% NaCl and serial dilutions (10^−1 to 10^−6) were made. 100 μl aliquots of the serial dilutions were streaked on blood agar plates, and further incubated overnight prior to CFU counting.
as §2

[9] = tested on: Staphylococcus epidermidis RP62A; test: CFU on silicone prosthetic liner patches; type: cell-based; details: washed with water
Protocol: as §1, §5, §6, §2

[10] = tested on: Aspergillus niger; test: MIC microbroth dilution (CLSI); type: cell-based; details: G.R. Micro collection
[11] = tested on: Streptococcus pyogenes; type: cell-based; details: Macrolide (M-type) resistance clinical isolate
Excerpt: as §3

[12] = tested on: Streptococcus pyogenes; test: Murine skin infection model, topical treatment; type: in vivo, mice; details: FIG. 2
Protocol: as §4
In experiment 2 (FIG. 2), compound 2 was applied in two different concentrations, as either a 1% or a 2% gel. A placebo gel and a known antibacterial “bactroban” were used as controls.
as §4, with “3, 4” for “1”, “5” for “2,”
In experiment 2 (FIG. 4), compound 7 was applied in two different concentrations, as either a 1% or a 2% gel. A placebo gel and a known antibacterial “bactroban (mupericin)” were used as controls.

[13] = tested on: trypsin; test: in vitro; type: in vitro ADME; details: pH 8.6
Protocol: Each peptide was dissolved in a 0.1 M NH4HCO3 buffer (pH 6.5) to yield a final peptide concentration of 1 mg/ml. A trypsin solution was prepared by dissolving 1 mg of trypsin in 50 ml 0.1 M NH4HCO3 buffer (pH 8.2). For the stability determination, 250 μl freshly made trypsin solution and 250 μl peptide solution were incubated in 2 ml of 0.1 M NH4HCO3 buffer (pH 8.6) at 37° C. on a rocking table. Aliquots of 0.5 ml were sampled at different time intervals, diluted with 0.5 ml water:acetonitrile (60:40 v/v) containing 1% TFA and analysed by RP-HPLC as described above. Samples without trypsin addition taken at 0 h and after 20 h at 37° C. were used as negative controls. Integration of the peak area at 254 nm for samples taken during the first 5 hours of the assay was used to generate the […].

[14] = tested on: Acinetobacter baumanii; test: MIC microbroth dilution (CLSI); type: cell-based; parameters: unit not given beside the values; details: antibiotic-susceptible clinical isolate
Excerpt: as §3

[15] = tested on: S. aureus (ATCC 8325); test: Modified AATCC 100 method, silicone membrane valves
[16] = tested on: Trichophyton interdigitale; test: MIC microbroth dilution (CLSI); type: cell-based; details: G.R. Micro collection
[17] = tested on: Clostridium difficile; test: MIC microbroth dilution (CLSI); type: cell-based; parameters: unit not given beside the values; details: antibiotic-susceptible clinical isolate
[18] = tested on: P. aeruginosa (PAO1); test: Modified AATCC 100 method, silicone membrane valves; details: low loading, original surface (A*)

CC(C)(C)c1cc(C(C)(C)C)c2[nH]c(C(C)(C)C)c(CC(NC(=O)C(N)CCCNC(=N)N)C(=O)NC(CCCNC(=N)N)C(=O)NCCc3ccccc3)c2c1 (stereo not drawn) [Compound 2]
growth inhibition zone ([1]; 5 minutes swell time): 4 mm | growth inhibition zone ([1]; 15 minutes swell time): 2 mm | growth inhibition zone ([2]; 5 minutes swell time): 3 mm | growth inhibition zone ([2]; 15 minutes swell time): 3 mm | MIC [3]: 16 | MIC ([4]; antibiotic-susceptible clinical isolate): 8 | MIC ([4]; multi-drug resistant clinical isolate): 8 | number of colony forming units (CFU) in skin biopsy [5]: number of CFUs was reduced | minimum inhibitory concentration (MIC) [6]: 2 to 4 µg/mL | MIC [7]: <3 µM | CFU ([8]; 5 minutes swell time): 0 CFU/ml | CFU ([8]; 15 minutes swell time): 0 CFU/ml | CFU ([9]; 5 minutes swell time): 0 CFU/ml | CFU ([9]; 15 minutes swell time): 0 CFU/ml | MIC [10]: 8 | MIC [11]: 16 | number of CFUs, 2% gel compared with 1% gel [12]: more effective than the gel containing only 1% of compound 2 | number of colony forming units (CFU) in skin biopsy ([12]; 1% or 2% gel, three treatments at three hourly intervals): more effective at reducing the number of CFUs than the placebo gel or the bactroban | half-life at 0.1 mg/ml [13]: > 24 h | MIC [14]: 16 | CFU (samples containing AMC-109) ([15]; High loading, swell concentration 8.3 mg/ml, original surface (A*)): 0 | CFU (samples containing AMC-109) ([15]; Low loading, 1.7 mg/ml, surface created by slicing (B*)): 0 | CFU (samples containing AMC-109) ([15]; Low with washing, 3.1 mg/ml, original surface (A*)): 0 | CFU (samples containing AMC-109) ([15]; Low with washing, 3.1 mg/ml, surface created by slicing (B*)): 0 | MIC [16]: 8 | MIC [17]: 16 | CFU (samples containing AMC-109) [18]: 0

Source: US20230233736A1, “ANTIMICROBIAL FORMULATIONS COMPRISING SILICONE” (AMICOAT AS, priority 2020, published 2023)
